For one test, the target named is T1, SUMO (Homo sapiens, UniProt Q9UBT2).
T1 sequence (Q9UBT2 1-640): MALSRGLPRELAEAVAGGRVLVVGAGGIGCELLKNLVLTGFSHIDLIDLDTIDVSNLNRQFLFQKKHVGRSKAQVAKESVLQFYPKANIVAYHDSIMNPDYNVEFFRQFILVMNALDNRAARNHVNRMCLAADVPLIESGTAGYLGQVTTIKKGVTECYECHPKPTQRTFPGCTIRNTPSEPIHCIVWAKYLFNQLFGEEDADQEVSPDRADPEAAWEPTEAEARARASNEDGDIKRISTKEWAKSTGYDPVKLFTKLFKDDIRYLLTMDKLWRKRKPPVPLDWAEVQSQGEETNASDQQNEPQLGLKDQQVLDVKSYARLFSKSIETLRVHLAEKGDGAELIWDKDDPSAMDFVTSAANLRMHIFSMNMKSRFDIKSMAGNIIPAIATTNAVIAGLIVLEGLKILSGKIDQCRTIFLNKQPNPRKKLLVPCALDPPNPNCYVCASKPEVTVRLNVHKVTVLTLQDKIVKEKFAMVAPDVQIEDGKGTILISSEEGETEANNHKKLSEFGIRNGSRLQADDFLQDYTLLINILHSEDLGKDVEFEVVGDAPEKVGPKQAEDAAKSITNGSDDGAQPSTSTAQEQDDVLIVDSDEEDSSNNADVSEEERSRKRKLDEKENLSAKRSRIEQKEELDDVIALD
T1 sequence (Q9UBE0 1-346 partner): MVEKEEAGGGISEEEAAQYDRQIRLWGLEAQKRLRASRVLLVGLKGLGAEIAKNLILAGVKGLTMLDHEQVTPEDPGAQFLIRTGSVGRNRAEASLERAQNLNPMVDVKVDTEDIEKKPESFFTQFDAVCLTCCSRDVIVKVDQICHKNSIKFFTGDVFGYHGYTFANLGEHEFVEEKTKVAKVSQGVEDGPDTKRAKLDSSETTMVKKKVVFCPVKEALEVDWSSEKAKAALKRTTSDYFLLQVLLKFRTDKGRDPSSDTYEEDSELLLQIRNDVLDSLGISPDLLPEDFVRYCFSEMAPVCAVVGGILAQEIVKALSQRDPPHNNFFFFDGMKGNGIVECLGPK
In words: SUMO activity (Table I, biological activities). In kind it is biochemical. Set-up: key: + (less active); ++ (active); +++ (most active).

The test system of test [1] is cancer stem cell (CSC) populations in patient derived xenograft (PDX) models. Kind of test: Limited dilution assays of cancer stem cell populations in PDX models (FIG. 1). In kind it is cell-based. As to conditions: 1 μM to 10 μM. The source says:
FIG. 1. Examination of the effect of compounds 582 and 588 to reduce cancer stem cell (CSC) populations in patient derived xenograft (PDX) models using limited dilution assays.

The subject of a further test is c-Myc. Kind of test: c-Myc activity (Table I, biological activities). Set-up: key: + (less active); ++ (active); +++ (most active).
The next test concerns the target T2, Ubiquitin (Homo sapiens, UniProt P22314).
T2 sequence (P22314 1-1058): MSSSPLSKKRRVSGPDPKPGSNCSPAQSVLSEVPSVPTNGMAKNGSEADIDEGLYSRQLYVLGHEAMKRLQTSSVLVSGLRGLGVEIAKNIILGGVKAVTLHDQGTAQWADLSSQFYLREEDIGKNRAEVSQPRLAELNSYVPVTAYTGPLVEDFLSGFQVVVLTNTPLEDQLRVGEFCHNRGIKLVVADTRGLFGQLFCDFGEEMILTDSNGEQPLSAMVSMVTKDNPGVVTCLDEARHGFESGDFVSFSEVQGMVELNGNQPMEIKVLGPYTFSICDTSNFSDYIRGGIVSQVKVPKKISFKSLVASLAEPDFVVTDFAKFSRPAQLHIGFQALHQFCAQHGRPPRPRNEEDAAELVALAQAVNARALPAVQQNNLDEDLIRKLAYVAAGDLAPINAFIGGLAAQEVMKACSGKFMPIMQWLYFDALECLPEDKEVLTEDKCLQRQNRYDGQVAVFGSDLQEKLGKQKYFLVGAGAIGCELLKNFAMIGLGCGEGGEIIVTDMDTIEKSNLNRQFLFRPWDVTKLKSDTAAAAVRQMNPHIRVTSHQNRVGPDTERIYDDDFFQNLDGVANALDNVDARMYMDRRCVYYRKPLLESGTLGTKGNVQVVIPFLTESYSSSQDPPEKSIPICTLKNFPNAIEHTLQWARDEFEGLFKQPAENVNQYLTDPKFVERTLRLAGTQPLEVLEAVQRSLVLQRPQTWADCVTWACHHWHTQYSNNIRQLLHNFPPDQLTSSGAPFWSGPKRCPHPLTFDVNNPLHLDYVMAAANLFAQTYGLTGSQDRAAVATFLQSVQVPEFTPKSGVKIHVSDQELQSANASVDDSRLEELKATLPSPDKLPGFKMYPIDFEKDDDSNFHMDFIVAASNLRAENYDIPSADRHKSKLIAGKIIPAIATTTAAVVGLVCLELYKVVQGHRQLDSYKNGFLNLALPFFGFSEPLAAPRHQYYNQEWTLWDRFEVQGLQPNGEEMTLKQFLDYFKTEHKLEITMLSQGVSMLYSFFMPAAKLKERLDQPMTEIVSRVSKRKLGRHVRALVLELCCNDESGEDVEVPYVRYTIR
In words: Ubiquitin activity (Table I, biological activities). In kind it is biochemical. Details: key: + (less active); ++ (active); +++ (most active).

A further test has as its target T3, Nedd8 (Homo sapiens, UniProt Q8TBC4).
T3 sequence (Q8TBC4 1-463): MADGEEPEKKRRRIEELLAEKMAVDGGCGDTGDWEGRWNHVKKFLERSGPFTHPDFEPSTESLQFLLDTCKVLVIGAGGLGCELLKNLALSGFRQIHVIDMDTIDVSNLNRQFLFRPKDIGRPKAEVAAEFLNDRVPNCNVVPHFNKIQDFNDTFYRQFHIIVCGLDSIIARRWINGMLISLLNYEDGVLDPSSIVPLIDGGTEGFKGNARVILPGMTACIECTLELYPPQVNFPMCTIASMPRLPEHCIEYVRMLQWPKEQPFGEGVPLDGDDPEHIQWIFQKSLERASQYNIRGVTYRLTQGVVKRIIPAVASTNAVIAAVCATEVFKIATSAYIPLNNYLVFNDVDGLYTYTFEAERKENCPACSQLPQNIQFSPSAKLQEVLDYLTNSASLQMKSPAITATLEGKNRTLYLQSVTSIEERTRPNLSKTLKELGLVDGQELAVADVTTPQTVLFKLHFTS
T3 sequence (Q13564 1-534 partner): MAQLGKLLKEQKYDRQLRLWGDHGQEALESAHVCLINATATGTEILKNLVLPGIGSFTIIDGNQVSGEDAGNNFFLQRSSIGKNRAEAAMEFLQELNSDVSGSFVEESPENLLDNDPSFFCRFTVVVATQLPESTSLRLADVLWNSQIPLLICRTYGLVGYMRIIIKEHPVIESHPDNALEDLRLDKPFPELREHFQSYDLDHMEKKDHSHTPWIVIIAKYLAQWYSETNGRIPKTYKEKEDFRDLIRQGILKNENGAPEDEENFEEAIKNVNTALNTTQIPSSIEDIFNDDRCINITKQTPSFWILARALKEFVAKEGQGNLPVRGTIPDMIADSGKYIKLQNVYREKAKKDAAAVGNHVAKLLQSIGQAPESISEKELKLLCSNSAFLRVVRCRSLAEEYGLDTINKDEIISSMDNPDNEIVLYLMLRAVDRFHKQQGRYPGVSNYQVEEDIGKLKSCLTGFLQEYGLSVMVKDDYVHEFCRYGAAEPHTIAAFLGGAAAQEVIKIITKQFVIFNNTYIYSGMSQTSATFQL
Kind of test: Nedd8 activity (Table I, biological activities). It counts as biochemical. Details: key: + (less active); ++ (active); +++ (most active).

In the case of `CCOC(=O)C1=C(C(=O)Nc2c(C)cccc2C)C2C=CC1(C(Nc1ccccc1)c1ccc(CN3CCOCC3)cc1)O2` (centres unmarked) [Compound 582], the SUMO result at SUMO is reported as “++”. For the same molecule, the “inhibition on PDX cancer-initiating-cell (CIC) frequency” value in test [1] is given as “dose-dependent inhibition on PDX cancer-initiating-cell (CIC) frequency, even at 1 μM”. In the test on c-Myc, the c-Myc entry is recorded as “++”.

Turning to `CCOC(=O)C1=C(C(=O)Nc2c(CC)cccc2CC)C2C=CC1(C(Nc1ccccc1)c1ccc(CN3CCOCC3)cc1)O2` (centres unmarked) [Compound 588], the SUMO entry at SUMO is reported as “++”. The “inhibition on PDX cancer-initiating-cell (CIC) frequency” value in test [1] was “only showed inhibition on CIC at high dose 10 μM”. Further, in the test with c-Myc, the c-Myc entry is given as “++”.

Consider `COC(=O)C1=C(C(=O)Nc2ccc(OCCN(C)C)cc2)C2OC1(C(Cc1ccccc1)Oc1ccccc1)C1OC21` (centres unmarked) [Compound 534], for which the Ubiquitin result at Ubiquitin is “+”. Also, the Nedd8 entry on Nedd8 is listed as “++”. At SUMO, the SUMO result was “+”. In addition, in the test with c-Myc, the c-Myc result is “++”.

Regarding `COC(=O)C1=C(C(=O)NCCN(C)C)C2C=CC1(C(Cc1ccccc1)Nc1cccc(CO)c1)O2` (centres unmarked) [Compound 535], the Ubiquitin entry at Ubiquitin was “+”. For the same molecule, on Nedd8, the Nedd8 result is “++”. Moreover, the SUMO entry on SUMO is reported as “+++”. In the test with c-Myc, the c-Myc entry was “++”.

The values are drawn from patent US11578079B2, “SUMO inhibitor compounds and uses thereof” (CITY OF HOPE, priority 2018, dated 2023).
